A word on the GI50: it is the concentration that inhibits growth by half. A word on the TGI: it is the concentration giving total growth inhibition. The low end stands for greater sensitivity of the cells, the high end for lower sensitivity of the cells.

Consider 9 compounds from PubChem BioAssay (NCI).

Test systems include A498 renal; HL-60(TB) leukemia; HOP-92 NSCLC; HT29 colon; IGROV1 ovarian; M14 melanoma; OVCAR-4 ovarian; RPMI-8226 leukemia; SF-295 CNS; SK-MEL-5 melanoma.
What all share (assay): DTP human tumour cell line panel, 48 h

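Method: 48-hour compound exposure of cells in 96-well plates, five concentrations, linear interpolation of endpoints. GI50 is the concentration that inhibits growth by half. Definition used: TGI = concentration required for complete inhibition of growth.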

Regarding `COc1ccc(-c2oc3ncnc(N)c3c2-c2ccc(NC(=O)Nc3cc(C(F)(F)F)ccc3F)cc2)cc1`, the GI50 is 0.329 µM with A498 renal; 2.58 µM in the assay with HL-60(TB) leukemia; 0.808 µM in the assay on HOP-92 NSCLC; 0.844 µM in the assay on HT29 colon; 0.995 µM in the assay with IGROV1 ovarian; 0.806 µM in the assay with M14 melanoma. Further, the GI50 in the assay with OVCAR-4 ovarian was 1.05 µM; in the assay with RPMI-8226 leukemia, 2.26 µM; with SF-295 CNS, 1.88 µM; in the assay on SK-MEL-5 melanoma, 1.52 µM. Also, the TGI in the assay on A498 renal was determined as 2.55 µM; in the assay with HL-60(TB) leukemia, 9.31 µM; in the assay on HOP-92 NSCLC, 5.4 µM; in the assay with HT29 colon it was 3.12 µM; with IGROV1 ovarian, 5.82 µM; with M14 melanoma, 3.23 µM. The TGI with OVCAR-4 ovarian was 8.45 µM; in the assay on RPMI-8226 leukemia it was 10.1 µM; in the assay on SF-295 CNS, 7.47 µM; with SK-MEL-5 melanoma it was 4.41 µM.
For the compound `COc1ccc(-c2c(NC(=O)Nc3ccc(Cl)c(C(F)(F)F)c3)cnn2-c2ccc(S(N)(=O)=O)cc2)cc1`, the GI50 in the assay on A498 renal is 2.84 µM; in the assay on HL-60(TB) leukemia, 2.27 µM; in the assay with HOP-92 NSCLC, 2.02 µM; with HT29 colon, 3.59 µM; in the assay with IGROV1 ovarian, 3.66 µM; in the assay with M14 melanoma, 3.32 µM. Besides, the GI50 in the assay with OVCAR-4 ovarian was 2.9 µM; in the assay on RPMI-8226 leukemia it was 3.14 µM; in the assay on SF-295 CNS it was 2.72 µM; in the assay with SK-MEL-5 melanoma, 1.9 µM. Besides, the TGI was 8.29 µM in the assay on A498 renal; 5.67 µM with HL-60(TB) leukemia; 7.32 µM with HOP-92 NSCLC; 10.9 µM in the assay on HT29 colon; 21.3 µM in the assay on IGROV1 ovarian; 12 µM in the assay on M14 melanoma. For the same compound, the total growth inhibition concentration (TGI) in the assay with OVCAR-4 ovarian was determined as 13.1 µM; with RPMI-8226 leukemia, 13.5 µM; in the assay on SF-295 CNS, 10.9 µM; with SK-MEL-5 melanoma, 3.85 µM.
For the compound `O=C1NN(C(=O)c2ccccc2)C(c2ccc(Cl)c(Cl)c2)=C/C1=C\c1ccccc1[N+](=O)[O-]`, the GI50 with A498 renal is 2.21 µM; in the assay with HL-60(TB) leukemia it was 2.01 µM; with HOP-92 NSCLC, 1.43 µM; with HT29 colon, 2.3 µM; in the assay on IGROV1 ovarian, 1.59 µM; in the assay with M14 melanoma, 1.9 µM. Moreover, the GI50 is 2.26 µM in the assay on OVCAR-4 ovarian, 1.77 µM in the assay with RPMI-8226 leukemia, 1.44 µM in the assay on SF-295 CNS and 1.17 µM in the assay with SK-MEL-5 melanoma. Besides, the TGI with A498 renal was 6.21 µM; in the assay with HL-60(TB) leukemia it was above 6.75 µM; in the assay with HOP-92 NSCLC it was above 6.75 µM; in the assay with HT29 colon, above 6.75 µM; with IGROV1 ovarian, above 6.75 µM; with M14 melanoma, above 6.75 µM. Also, the TGI was above 6.75 µM with OVCAR-4 ovarian, above 6.75 µM with RPMI-8226 leukemia, 4.16 µM with SF-295 CNS and 2.19 µM in the assay with SK-MEL-5 melanoma.
On to `CC(C)(C)c1cc[n+](C[n+]2ccc(C(C)(C)C)cc2)cc1`, for which the TGI in the assay with A498 renal, in the assay with HL-60(TB) leukemia, in the assay on HOP-92 NSCLC, in the assay with HT29 colon, in the assay on IGROV1 ovarian and in the assay on M14 melanoma was above 100 µM in each case. The TGI in the assay on OVCAR-4 ovarian, in the assay on RPMI-8226 leukemia, in the assay with SF-295 CNS and in the assay on SK-MEL-5 melanoma was above 100 µM throughout.
Regarding `Oc1cccc2ccc(SSc3ccc4cccc(O)c4n3)nc12`, the TGI with A498 renal is 77.4 µM; in the assay with HL-60(TB) leukemia it was 56.7 µM; in the assay on HOP-92 NSCLC, 55.9 µM; in the assay with HT29 colon, 41.5 µM; with IGROV1 ovarian, 60.8 µM; in the assay on M14 melanoma, 33.3 µM. Moreover, the TGI with OVCAR-4 ovarian was 34.2 µM; in the assay on RPMI-8226 leukemia it was above 100 µM; in the assay with SF-295 CNS it was 33.7 µM; with SK-MEL-5 melanoma, above 100 µM.
With `CC(C)(C)OC(=O)NC(Cc1ccccc1)C(=S)N1CCCC1` (centres undefined), the TGI with A498 renal, in the assay with HL-60(TB) leukemia, with HOP-92 NSCLC, in the assay on HT29 colon, in the assay with IGROV1 ovarian and in the assay with M14 melanoma was above 100 µM each time. Further, the TGI is above 100 µM in the assay with OVCAR-4 ovarian, 98 µM with RPMI-8226 leukemia, above 100 µM in the assay on SF-295 CNS and above 100 µM in the assay with SK-MEL-5 melanoma.
`C/C(=N\NC(=O)c1ccccc1O)c1c(O)cc(C)oc1=O`: the TGI with A498 renal is above 100 µM; in the assay with HL-60(TB) leukemia, above 100 µM; with HOP-92 NSCLC, 68.3 µM; with HT29 colon it was above 100 µM; in the assay with IGROV1 ovarian it was above 100 µM; with M14 melanoma it was above 100 µM. The total growth inhibition concentration (TGI) in the assay with OVCAR-4 ovarian, with RPMI-8226 leukemia, in the assay with SF-295 CNS and with SK-MEL-5 melanoma was above 100 µM each time.
As to `COC(=O)[C@@H](C)C[C@H](Cc1ccc(F)cc1)NC(=O)c1csc([C@@H](C[C@H](C(C)C)N(C)C(=O)[C@@H](NC(=O)[C@H]2CCCCN2C)C2CC2)OC(C)=O)n1`, the GI50 in the assay with A498 renal was 0.598 µM; with HL-60(TB) leukemia, 0.054 µM; with HOP-92 NSCLC it was 0.917 µM; in the assay on HT29 colon, 0.107 µM; in the assay with IGROV1 ovarian it was 0.34 µM; with M14 melanoma, 0.157 µM. Besides, the GI50 in the assay with OVCAR-4 ovarian was 2.37 µM; in the assay with RPMI-8226 leukemia, 0.104 µM; with SF-295 CNS, 0.585 µM; with SK-MEL-5 melanoma, 0.0957 µM. For the same compound, the TGI with A498 renal is 6.87 µM; in the assay with HOP-92 NSCLC, above 12.8 µM; with HT29 colon, above 25 µM; with IGROV1 ovarian it was above 25 µM; in the assay on M14 melanoma, above 5.99 µM; with OVCAR-4 ovarian it was above 25 µM. Further, the TGI in the assay on RPMI-8226 leukemia is above 25 µM; in the assay on SF-295 CNS it was above 25 µM; with SK-MEL-5 melanoma, 1.46 µM.
In the case of `COc1cc(/C=C/C(=O)c2ccccc2O)ccc1OCCCOc1cc2c(cc1OC)C(=O)N1CCC[C@H]1C=N2`, the GI50 with A498 renal was 0.0479 µM; in the assay on HL-60(TB) leukemia it was 0.0515 µM; in the assay with HOP-92 NSCLC, 0.0499 µM; with HT29 colon it was 0.0344 µM; with IGROV1 ovarian, 0.0255 µM; with M14 melanoma, 0.0401 µM. Moreover, the GI50 is 0.116 µM with OVCAR-4 ovarian, 0.0282 µM with RPMI-8226 leukemia, 0.0281 µM in the assay on SF-295 CNS and 0.0577 µM in the assay with SK-MEL-5 melanoma. Further, the TGI with A498 renal was 0.319 µM; in the assay with HL-60(TB) leukemia, 0.161 µM; in the assay on HOP-92 NSCLC, 0.99 µM; with HT29 colon, above 100 µM; in the assay on IGROV1 ovarian, 0.163 µM; in the assay on M14 melanoma, 0.172 µM. The TGI in the assay on OVCAR-4 ovarian turned out to be 15.2 µM; in the assay with RPMI-8226 leukemia, 0.0758 µM; with SF-295 CNS it was 0.0895 µM; with SK-MEL-5 melanoma, 0.167 µM.
